According to PubChem BioAssay (NCI):
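Interpolation was linear, between the two tested concentrations surrounding the appropriate level; five concentrations were tested over 48 hours in 96-well plates. TGI: total growth inhibition.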

What was measured:
Test in all cases: NCI anticancer screen, dose series, 48 h
[1] = tested on: HT29 colon
[2] = tested on: CAKI-1 renal
[3] = tested on: SF-539 CNS
[4] = tested on: TK-10 renal
[5] = tested on: T-47D breast
[6] = tested on: HS 578T breast
[7] = tested on: K-562 leukemia
[8] = tested on: CCRF-CEM leukemia
[9] = tested on: UO-31 renal
[10] = tested on: COLO 205 colon
[11] = tested on: HCC-2998 colon
[12] = tested on: SK-MEL-5 melanoma
[13] = tested on: MDA-MB-435
[14] = tested on: SR leukemia
[15] = tested on: SW-620 colon
[16] = tested on: HL-60(TB) leukemia
[17] = tested on: SK-MEL-28 melanoma
[18] = tested on: 786-0 renal
[19] = tested on: HCT-116 colon
[20] = tested on: BT-549 breast
[21] = tested on: OVCAR-3 ovarian
[22] = tested on: MOLT-4 leukemia
[23] = tested on: U251 CNS
[24] = tested on: SN12C renal
[25] = tested on: OVCAR-8 ovarian
[26] = tested on: A498 renal
[27] = tested on: OVCAR-5 ovarian
[28] = tested on: NCI/ADR-RES ovarian
[29] = tested on: SF-268 CNS
[30] = tested on: RPMI-8226 leukemia
[31] = tested on: UACC-62 melanoma
[32] = tested on: A549 NSCLC
[33] = tested on: SK-OV-3 ovarian
[34] = tested on: M14 melanoma
[35] = tested on: IGROV1 ovarian
[36] = tested on: MDA-MB-231 breast
[37] = tested on: UACC-257 melanoma
[38] = tested on: DU-145 prostate
[39] = tested on: SNB-19 CNS
[40] = tested on: KM12 colon
[41] = tested on: MALME-3M melanoma
[42] = tested on: LOX IMVI melanoma
[43] = tested on: NCI-H226 lung
[44] = tested on: ACHN renal
[45] = tested on: NCI-H522 lung
[46] = tested on: HCT-15 colon
[47] = tested on: EKVX NSCLC
[48] = tested on: SNB-75 CNS
[49] = tested on: HOP-62 NSCLC
[50] = tested on: PC-3 prostate
[51] = tested on: SK-MEL-2 melanoma
[52] = tested on: NCI-H460 lung
[53] = tested on: NCI-H23 lung
[54] = tested on: SF-295 CNS
[55] = tested on: RXF 393 renal
[56] = tested on: OVCAR-4 ovarian
[57] = tested on: MCF7 breast

With `S=c1sc2c(s1)SCc1cccc(n1)CSc1sc(=S)sc1SCc1cccc(n1)CS2` as the compound, how does the TGI [1] read?
Its TGI is over 100 µM.

And the TGI [2]?
The TGI was over 100 µM.

What about the TGI [3] of the same compound?
Its TGI is over 100 µM.

And the TGI [4]?
The TGI was over 100 µM.

And the TGI [5]?
The TGI was over 100 µM.

And the TGI [6]?
The TGI was over 100 µM.

And the TGI [7]?
Its TGI is over 100 µM.

And the TGI [8]?
The TGI was over 100 µM.

What about the TGI [9] of the same compound?
The TGI was over 100 µM.

And the TGI [10]?
The TGI was over 100 µM.

What about the TGI [11] of the same compound?
The TGI was over 100 µM.

And the TGI [12]?
Its TGI is over 100 µM.

And the TGI [13]?
The TGI was over 100 µM.

And the TGI [14]?
The TGI was over 100 µM.

And the TGI [15]?
Its TGI is over 100 µM.

And the TGI [16]?
The TGI was over 100 µM.

And the TGI [17]?
Its TGI is over 100 µM.

And the TGI [18]?
Its TGI is over 100 µM.

What about the TGI [19] of the same compound?
Its TGI is over 100 µM.

And the TGI [20]?
The TGI was over 100 µM.

And the TGI [21]?
The TGI was over 100 µM.

And the TGI [22]?
The TGI was over 100 µM.

And the TGI [23]?
The TGI was over 100 µM.

And the TGI [24]?
The TGI was over 100 µM.

What about the TGI [25] of the same compound?
The TGI was over 100 µM.

What about the TGI [26] of the same compound?
Its TGI is over 100 µM.

And the TGI [27]?
Its TGI is over 100 µM.

And the TGI [28]?
Its TGI is over 100 µM.

What about the TGI [29] of the same compound?
Its TGI is over 100 µM.

And the TGI [30]?
Its TGI is over 100 µM.

What about the TGI [31] of the same compound?
Its TGI is over 100 µM.

And the TGI [32]?
Its TGI is over 100 µM.

What about the TGI [33] of the same compound?
Its TGI is over 100 µM.

What about the TGI [34] of the same compound?
The TGI was over 100 µM.

And the TGI [35]?
The TGI was over 100 µM.

What about the TGI [36] of the same compound?
Its TGI is over 100 µM.

What about the TGI [37] of the same compound?
The TGI was over 100 µM.

What about the TGI [38] of the same compound?
Its TGI is over 100 µM.

What about the TGI [39] of the same compound?
The TGI was over 100 µM.

And the TGI [40]?
The TGI was over 100 µM.

What about the TGI [41] of the same compound?
The TGI was over 100 µM.

What about the TGI [42] of the same compound?
The TGI was over 100 µM.

And the TGI [43]?
The TGI was over 100 µM.

What about the TGI [44] of the same compound?
Its TGI is over 100 µM.

What about the TGI [45] of the same compound?
The TGI was over 100 µM.

What about the TGI [46] of the same compound?
The TGI was over 100 µM.

And the TGI [47]?
The TGI was over 100 µM.

And the TGI [48]?
The TGI was over 100 µM.

And the TGI [49]?
Its TGI is over 100 µM.

And the TGI [50]?
The TGI was over 100 µM.

And the TGI [51]?
Its TGI is over 100 µM.

And the TGI [52]?
Its TGI is over 100 µM.

What about the TGI [53] of the same compound?
The TGI was over 100 µM.

What about the TGI [54] of the same compound?
Its TGI is over 100 µM.

`Cc1cc(C(=O)CBr)c(CN2C(=O)c3ccccc3C2=O)c(=O)n1C` was tested. Which TGI [55] did it give?
Its TGI is 33.7 µM.

And the TGI [1]?
Its TGI is over 100 µM.

What about the TGI [2] of the same compound?
Its TGI is 47.8 µM.

What about the TGI [3] of the same compound?
The TGI was 34.3 µM.

What about the TGI [4] of the same compound?
Its TGI is 25.3 µM.

And the TGI [5]?
Its TGI is 74.4 µM.

And the TGI [6]?
Its TGI is 45.6 µM.

And the TGI [7]?
Its TGI is 20.6 µM.

What about the TGI [8] of the same compound?
The TGI was 6.25 µM.

What about the TGI [9] of the same compound?
The TGI was 41.6 µM.

What about the TGI [10] of the same compound?
Its TGI is 47.9 µM.

What about the TGI [56] of the same compound?
Its TGI is over 100 µM.

What about the TGI [11] of the same compound?
The TGI was 59.7 µM.

What about the TGI [13] of the same compound?
Its TGI is 43.6 µM.

And the TGI [57]?
The TGI was 56 µM.

And the TGI [15]?
The TGI was 23 µM.

And the TGI [16]?
Its TGI is 25 µM.

And the TGI [17]?
The TGI was 42.7 µM.

And the TGI [18]?
The TGI was over 100 µM.

And the TGI [19]?
Its TGI is over 100 µM.

And the TGI [20]?
The TGI was 32.7 µM.

And the TGI [21]?
The TGI was 40.9 µM.

What about the TGI [22] of the same compound?
Its TGI is 5.57 µM.

What about the TGI [23] of the same compound?
The TGI was 38 µM.

And the TGI [24]?
Its TGI is 36 µM.

And the TGI [25]?
The TGI was 41.1 µM.

And the TGI [27]?
The TGI was 52.6 µM.

What about the TGI [28] of the same compound?
The TGI was over 100 µM.

What about the TGI [29] of the same compound?
The TGI was 54.9 µM.

And the TGI [31]?
The TGI was 34.7 µM.

And the TGI [32]?
Its TGI is 44.7 µM.

What about the TGI [33] of the same compound?
The TGI was over 100 µM.

And the TGI [34]?
The TGI was over 100 µM.

And the TGI [35]?
Its TGI is 64.2 µM.

What about the TGI [36] of the same compound?
Its TGI is 40.2 µM.

What about the TGI [37] of the same compound?
Its TGI is 33.5 µM.

And the TGI [38]?
The TGI was 30.5 µM.

What about the TGI [39] of the same compound?
Its TGI is 93.2 µM.

And the TGI [40]?
The TGI was 40.1 µM.

And the TGI [41]?
The TGI was 36.8 µM.

And the TGI [42]?
The TGI was 99.3 µM.

And the TGI [43]?
Its TGI is over 100 µM.

What about the TGI [44] of the same compound?
Its TGI is 25.6 µM.

And the TGI [45]?
The TGI was 37.4 µM.

And the TGI [46]?
The TGI was 34.9 µM.

And the TGI [47]?
Its TGI is 14.5 µM.

And the TGI [48]?
The TGI was 56.5 µM.

What about the TGI [49] of the same compound?
Its TGI is over 100 µM.

And the TGI [50]?
Its TGI is 35.5 µM.

And the TGI [51]?
The TGI was 61.7 µM.

And the TGI [52]?
The TGI was 76.6 µM.

And the TGI [53]?
The TGI was over 100 µM.

And the TGI [54]?
Its TGI is over 100 µM.
